In publication PMC6010013, “Synthesis, physiochemical property and antimicrobial activity of novel quaternary ammonium salts” (Journal of Enzyme Inhibition and Medicinal Chemistry, 2017):

Tests used:
Assay type in all cases: cell-based
P. aeruginosa = assay: MBC, agar plating of dilutions without growth; details: 99.9% bactericidal; for MBC: Pseudomonas aeruginosa, read-out: Minimal bactericidal concentration (MBC)
Text: (§1) In this paper, antimicrobial activities of 24 QASs were detected by quantitative tests. […] Benzalkonium chloride (BZK) and chlorhexidine acetate (CA) was selected as positive controls. Representative compound POT-C12QAS (2) which synthesised and evaluated in previous work was also taken as a reference compound in MIC, MBC and cytotoxicity tests. […]
(§2) agriculture were used as target pathogens in this study, including three strains of Gram-positive bacteria (S. Aureus, α-H-tococcus, β-H-tococcus), three strains of Gram-negative bacteria (E. coli, P. aeruginosa, Proteus vulgaris) and four strains of fungi (Canidia albicans, Cytospora mandshurica, Physalospora piricola, Aspergillus niger). The antimicrobial tests were assayed, according to standard CLSI methods for antimicrobial dilution susceptibility tests to measure the minimum inhibitory concentration (MIC) and minimum bactericidal concentration (MBC)2.
(§3) A broth tube dilution method was followed to determine the MIC values for all the screened compounds against the micro-organisms, and for comparison benzalkonium chloride (BZK) and chlorhexidine acetate (CA) was used as a reference. For sample preparation, each of the test compounds and reference were dissolved in DMSO or sterile water at a concentration of 1600 μg/mL, and further dilutions of the compounds and reference in culture medium MHB (Muller-Hinton Broth) were prepared at the required quantities of 400, 200, 100 etc., down to 0.39 μg/mL. Bacterial strains and fungal strains were maintained on MHA (Muller-Hinton Agar) medium at 37℃ or 28 ℃ for 12 h or 72h, respectively. The microbial inocula were prepared by suspension in 10 mL of culture medium for colonies from culture on MHA. The cell density of each inoculum was adjusted in culture medium of a 0.5 McFarland standard (1-2×10^8 CFU/mL). The final amount applied was 10^5 CFU/mL for bacteria and fungi. The microbial inocula were added to the twofold diluted samples. One growth control tube was prepared […] the addition of the compound and one blank tube was prepared without the addition of the microorganism. MIC values were read after incubation at 37℃ or 28 ℃ for bacterial and fungal strains, respectively. After 12 h or 72h, the last tube with no growth of micro-organisms was recorded to represent the MIC value expressed in μg/ml. All experiments were carried out three times. […]
(§4) was placed on agar plates in triplicate, and incubated at 37℃ or 28 ℃ for 12 h or 72h. The number of colonies on each plate was read, and the MBC was determined as the lowest concentration that achieved a 99.9% bactericidal in the agar plate.

Canidia albicans = assay: MBC, agar plating of dilutions without growth; details: 99.9% bactericidal; for MBC: read-out: Minimal bactericidal concentration (MBC)
Text: as §1, §2, §3, §4

Physalospora piricola = assay: MBC, agar plating of dilutions without growth; details: 99.9% bactericidal; for MBC: read-out: Minimal bactericidal concentration (MBC)
Text: as §1, §2, §3, §4

E. coli = assay: MBC, agar plating of dilutions without growth; details: 99.9% bactericidal; for MBC: Escherichia coli, read-out: Minimal bactericidal concentration (MBC)
Text: as §1, §2, §3, §4

Aspergillus niger = assay: MBC, agar plating of dilutions without growth; details: 99.9% bactericidal; for MBC: read-out: Minimal bactericidal concentration (MBC)
Text: as §1, §2, §3, §4

Proteus vulgaris = assay: MBC, agar plating of dilutions without growth; details: 99.9% bactericidal; for MBC: read-out: Minimal bactericidal concentration (MBC)
Text: as §1, §2, §3, §4

S. aureus = assay: MBC, agar plating of dilutions without growth; details: 99.9% bactericidal; for MBC: Staphylococcus aureus, read-out: Minimal bactericidal concentration (MBC)
Text: as §1, §2, §3, §4

α-H-tococcus = assay: MBC, agar plating of dilutions without growth; details: 99.9% bactericidal; for MBC: read-out: Minimal bactericidal concentration (MBC)
Text: as §1, §2, §3, §4

Cytospora mandshurica = assay: MBC, agar plating of dilutions without growth; details: 99.9% bactericidal; for MBC: Cytospora, read-out: Minimal bactericidal concentration (MBC)
Text: as §1, §2, §3, §4

β-H-tococcus = assay: MBC, agar plating of dilutions without growth; details: 99.9% bactericidal; for MBC: read-out: Minimal bactericidal concentration (MBC)
Text: as §1, §2
as §3, with “respectively.” for “respectively. After 12 h or 72h, the last tube with no growth of micro-organisms was recorded to represent the MIC value expressed in μg/ml. All experiments were carried out three times.”
as §4

Haemolysis assay = details: human red blood cells (erythrocyte suspension), 1 h at 37 ℃, read-out: Haemolysis rate; for hemolysis at 1 h, 12.5 μg/mL: 12.50 μg/mL
Description: The surfactant may be absorbed and penetrate to the cell membrane, where it makes osmotic phenomena by altering the permeability of membrane, which in turn causes the cellular lysis. Haemolysis assay gives quantitative estimation about haemoglobin release when red blood cells are treated with QASs. Haemolytic assay of QASs at different concentration was carried out in Table 4. […] For 5a-b, 6a-b, 10a-c, 13a-b, and 16a-d, their safe concentration can more than 100 μg/mL. Compared with BZK and CA, all QASs were safe to be used when they circulated into the blood in low concentration. […]
The human blood from healthy individual was collected in a tube containing heparin, and the blood was centrifuged at 1500 rpm for 3 min. The […] (Erythrocyte) was collected and plasma was discarded and further washed five times with sterile normal saline solution. Then the cells were diluted to 0.2% of their volume with normal saline solution. 2 mL of the diluted red blood cells suspension was mixed with (a) 2 mL of normal salinesolution as a negative control; (b) 2 mL of distilled water as a positive control; (c) 2 mL of QAS solution which were dispersed into normal saline solution at the different concentrations ranging from 3.125 to 400 μg/mL. Then the mixtures were shaken well and incubated for 1 h at 37 ℃. Finally, the mixtures were centrifuged for 5min at 2000 r/min and the absorbances of supernatant at 540 nm was measured by a microplate reader (Multiskan MK3-Thermo Labsystems, USA). The hemolysis ratio was calculated as follows: The hemolysis ratio(%) = (OD Sample−OD Negative)/(OD Positive −OD Negative) ×100%. The hemolysis evaluation of QASs was performed in triplicate and results were expressed as the mean ± SD.

Compound	MBC (P. aeruginosa) [µg/mL]	MBC (Canidia albicans) [µg/mL]	MBC (Physalospora piricola) [µg/mL]	MBC (E. coli) [µg/mL]	MBC (Aspergillus niger) [µg/mL]	MBC (Proteus vulgaris) [µg/mL]	MBC (S. aureus) [µg/mL]	MBC (α-H-tococcus) [µg/mL]	MBC (Cytospora mandshurica) [µg/mL]	hemolysis at 1 h, 6.25 μg/mL (Haemolysis assay) [%]	hemolysis at 1 h, 12.5 μg/mL (Haemolysis assay) [%]	hemolysis at 1 h, 25 μg/mL (Haemolysis assay) [%]	hemolysis at 1 h, 50 μg/mL (Haemolysis assay) [%]	hemolysis at 1 h, 100 μg/mL (Haemolysis assay) [%]	hemolysis at 1 h, 200 μg/mL (Haemolysis assay) [%]	hemolysis at 1 h, 400 μg/mL (Haemolysis assay) [%]	MBC (β-H-tococcus) [µg/mL]	other results
Benzalkonium chloride [BZK, reference compound]	–	–	–	–	–	–	–	–	–	–	–	–	–	–	–	–	–	Minimal bactericidal concentration (MBC) (P. aeruginosa): 25 µg/mL; Minimal bactericidal concentration (MBC) (Canidia albicans): 25 µg/mL; Minimal bactericidal concentration (MBC) (Physalospora piricola): 3.125 µg/mL; Minimal bactericidal concentration (MBC) (E. coli): 25 µg/mL; Minimal bactericidal concentration (MBC) (Aspergillus niger): 6.25 µg/mL; Minimal bactericidal concentration (MBC) (Proteus vulgaris): 25 µg/mL; Minimal bactericidal concentration (MBC) (S. aureus): 3.125 µg/mL; Minimal bactericidal concentration (MBC) (α-H-tococcus): 3.125 µg/mL; Minimal bactericidal concentration (MBC) (Cytospora mandshurica): 6.25 µg/mL; Minimal bactericidal concentration (MBC) (β-H-tococcus): 1.56 µg/mL
C[N+](CCO)(CCO)CCCCCCCCSc1nnc(-c2ccc(C(F)(F)F)cc2)o1 [Compound 6b]	50	25	6.25	50	25	50	25	25	12.5	0.18 ± 0.06	0.51 ± 0.08	0.43 ± 0.1	0.7 ± 0.18	4.61 ± 0.31	26.2 ± 3.68	80.4 ± 4.98	12.5	–
C[N+](CCO)(CCO)CCCCCCSc1nnc(-c2ccc(C(F)(F)F)cc2)o1 [Compound 6a]	100	50	12.5	50	25	100	50	50	25	0.15 ± 0.08	0.35 ± 0.17	0.51 ± 0.19	0.99 ± 0.12	3.38 ± 1.23	7.09 ± 2.89	41 ± 5.32	25	–
C[N+](CCO)(CCO)CCCCCCSc1nnc(-c2ccc(F)cc2)o1 [Compound 5a]	100	50	12.5	100	50	100	100	50	50	0.21 ± 0.03	0.53 ± 0.15	1.37 ± 0.87	1.54 ± 0.96	3.25 ± 1.23	6.21 ± 3.21	35.6 ± 4.87	25	–
